Columns and labels:
[1] = test system: rat duodenum, jejunum and ileum; set-up: method as in PMID 15296954, PMID 8893271; conditions: reference compounds; cited from earlier work
[2] = test system: rat duodenum, jejunum and ileum; test: In situ single-pass intestinal perfusion (SPIP); conditions: perfusate 40 μg/mL, n = 6
Experimental: The blank perfusion buffer solution was composed of 9.80 g Hanks’ Balanced Salts, 5.96 g 4-2(Hydroxyethyl) piperazine-1-ethanesulfonic acid (HEPES), 1.16 g NaCl, 3.50 g D-glucose and 0.37 g NaHCO3. The pH was adjusted to 6.5. […] The perfusate containing 2 μg/mL of NCE with and without 0.4% SDS was applied to three intestinal segments to investigate the effect of SDS on intestinal absorption of NCE. To examine whether there was any concentration-dependent characteristics or site specific absorption of NCE, 2, 20 and 40 μg/mL of NCE containing 0.4% SDS (w/v) were also studied in three intestinal segments using the same rat perfusion model.
Male Sprague-Dawley rats (170–230 g) were obtained from the Laboratory Animal Center, Sichuan University (Chengdu, China). Prior to the experiment, animals were fasted for at least 18 h with free access to water. All animal studies were approved and supervised by the State Key Laboratory of Biotherapy Animal Care and Use Committee (Sichuan University, Chengdu, Sichuan, China). Then, single pass intestine perfusion studies were conducted according to the literature. In brief, rats were anaesthetized by pentobarbital sodium (i.p., […]) and placed on a homeothermic pad to maintain their body temperature. After making a 3–4 cm midline abdominal incision, the small intestinal was exposed. The duodenum, jejunum and ileum were isolated as follows: duodenum segment beginning from 1 cm away from pylorus, jejunum segment beginning from 20 cm away from pylorus and ileum segment beginning at the site 20 cm upwards caecum. Each intestinal segment was approximately 10 cm long. After removing the intestinal content by rinsing with warm saline, two glass cannulas were inserted to the distal and proximal end of the segment. Then, the intestinal segments of interest were connected to a perfusion pump and the outlet tubing was placed at the same height as the inlet. The intestine was handled carefully to maintain an intact blood supply.
The segments were rinsed with perfusate at the rate of 1.0 mL/min for 10 min, and then perfused at the rate of 0.2 mL/min for 30 min to maintain a steady-state. The time was set zero immediately when the perfusion started. The outlet perfused samples were collected every 15 min until 120 min. Then, the samples were centrifuged at 1.3 × 10^4 rpm for 10 min. The supernatant was analyzed by HPLC. The length of tested segments was measured and rats were euthanized after experiment.
Peff is the quantitative parameter estimating the passage rate of a solute across a membrane. It was calculated from the steady-state concentration of NCE in the perfusate. The drug concentration in the perfusate was corrected for changes in the water flux. Meanwhile, the density corrected gravimetric method was employed to calculate the net water flux across the incubated intestinal segment. A known volume of perfusate was weighed using an electronic weighing balance to determine the density of the collected samples. After correcting for water flux, the drug concentration in the effluent perfusate (Cout(cor)), was calculated as following.
(3) Cout(cor)=Cout×Qout/Qin
where Cout is the concentration of tested drug in the effluent perfusates, Qin and Qout are the inlet and outlet flow rate (mL/min), respectively, which are adjusted for liquid density (mL/min).
The calculation of permeability across rat intestinal segment was performed from the intestinal perfusate samples collected over 15–120 min (steady state) using the following equation).
(4) Peff=-Qin ln(Cout(cor)/Cin)/2πrl

rats = test system: rats; set-up: method as in ref 24 = [24]; 24. Ma N. Wang J. Xu F. Li J. Li Y. Xiao H. Xiang D. Studies on absorptive characters of resveratrol derivative (e)-3,5,4′-trimethoxystilbene in rat intestine Chin. J. Pharm. Anal 2010 30 586 591; conditions: in perfusion buffer, preliminary experiments; cited from earlier work

Peff ([2]; Duodenum) | Peff ([2]; Ileum) | Peff ([2]; Jejunum) | SMILES | permeability class [1] | concentration toxic to rats (rats)
0.15 ± 0.07 ^* 10^−4 cm/s | 0.17 ± 0.02 ^N.S ^* 10^−4 cm/s | 0.19 ± 0.07 ^N.S. ^* 10^−4 cm/s | CNC(=C[N+](=O)[O-])NCCSCc1ccc(CN(C)C)o1 [Ranitidine, reference compound] | low permeability | 
 |  |  | CCCCCCCCCCCCOS(=O)(=O)[O-].[Na+] [SDS, sodium dodecyl sulfate] |  | higher than 1%
0.74 ± 0.02 ^* 10^−4 cm/s | 0.63 ± 0.04 ^N.S. ^* 10^−4 cm/s | 0.64 ± 0.01 ^N.S. ^* 10^−4 cm/s | Cn1c(=O)c2[nH]cnc2n(C)c1=O [Theophylline, reference compound] |  | 

— publication PMC4057667, “Study on Biopharmaceutics Classification and Oral Bioavailability of a Novel Multikinase Inhibitor NCE for Cancer Therapy” (International Journal of Molecular Sciences, 2014)
